Laboratory results as given in patent EP4810040A2, “INHIBITORS OF APOL1 AND METHODS OF USING SAME” (priority 2020, dated 2022).

Target: T1, APOL1 G1 (Homo sapiens, UniProt O14791, I384M/S342G)
T1 sequence (O14791 28-398 S342G/I384M): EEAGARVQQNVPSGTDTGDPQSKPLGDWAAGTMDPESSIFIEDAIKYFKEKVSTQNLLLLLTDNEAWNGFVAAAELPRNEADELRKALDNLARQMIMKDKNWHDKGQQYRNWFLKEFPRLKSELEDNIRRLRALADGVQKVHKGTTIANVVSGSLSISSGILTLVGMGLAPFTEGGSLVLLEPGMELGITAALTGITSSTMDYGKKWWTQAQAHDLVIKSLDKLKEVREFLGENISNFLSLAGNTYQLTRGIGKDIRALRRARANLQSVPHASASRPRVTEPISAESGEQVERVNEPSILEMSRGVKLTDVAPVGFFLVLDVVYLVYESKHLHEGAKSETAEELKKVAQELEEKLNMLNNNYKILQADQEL
Assay: MultiTox-Fluor Multiplex Cytotoxicity Assay, tet-inducible APOL1 G1 T-REx-HEK293 cells
Type: cell-based
Set-up: expressed in transfected cells; host or cells: T-REx HEK293, clone G1 DC3.25 (pAAVS1-Puro-APOL1 G1)
Details: for IC90: HEK293, Multi-Tox Assay, APOL1 variant (G0/G1/G2) of the HEK293 cells not given, read-out: Multi-Tox Assay IC90; for Multi-Tox Assay Max Activity (%) / Emax: APOL1 variant not given, Multi-Tox Assay; for Emax: read-out: Multi-Tox Assay Max Activity (%)
Procedure, shortened: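 T-REx-HEK293 cells carrying tet-inducible APOL1 G1 induced with 50 ng/mL tet alongside compound (top 10 µM, 10-point 3-fold, duplicate) for 24 h at 37 °C. MultiTox-Fluor dead/live protease fluorescence ratio read after 30 min; normalized to no-tet (100% viability) and tet-treated (0%) controls, then curve-fitted.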

Row | Structure (SMILES) | IC90 [nM] | Multi-Tox Assay Max Activity (%) | Emax [%]
1 | C[C@H]1CC2(C[C@@H](c3cn(C)nn3)N1)OCC(C)(C)c1sc(Cl)cc12 (single isomer, unassigned) [Compound 15] | < 50 |  | 
2 | C[C@H]1CC2(C[C@@H](c3cn(C)nn3)N1)OCC(C)(C)c1sc(C(F)(F)F)cc12 (single isomer, unassigned) [Compound 16] | 50 to 500 | 100.0 | 
3 | C[C@H]1CC2(C[C@@H](c3cn(C)nn3)N1)OCCc1sc(Cl)cc12 (single isomer, unassigned) [Compound 173] | < 50 |  | 99.5
4 | C[C@H]1CC2(CC(c3cn(C)cn3)N1)OCC(O)c1cc(Cl)sc12 (single isomer, unassigned) [Compound 178] | < 50 |  | 99.7
5 | C[C@H]1C[C@@]2(C[C@@H](c3cn(C)nn3)N1)OCC(O)(C(F)F)c1cc(Cl)sc12 (single isomer, unassigned) [Compound 184] | 50 to 500 |  | 99.3
6 | C[C@@H]1CC2(C[C@H](C)N1)OCCc1sc(C(F)(F)F)cc12 (single isomer, unassigned) [Compound 196] | 50 to 500 |  | 99
7 | C[C@@H]1CC2(C[C@H](C)N1)OCCc1cc(Br)sc12 (single isomer, unassigned) [Compound 197] | 50 to 500 |  | 99
8 | C[C@@H]1CC2(C[C@H](C)N1)OCCc1cc(C3CC(F)(F)C3)sc12 (single isomer, unassigned) [Compound 198] | 50 to 500 |  | 98.7
9 | CCc1cc2c(s1)C1(C[C@@H](C)N[C@@H](C)C1)OCC2 (single isomer, unassigned) [Compound 199] | 50 to 500 |  | 99.3
10 | CC(C)c1cc2c(s1)C1(C[C@@H](C)N[C@@H](C)C1)OCC2 (single isomer, unassigned) [Compound 200] | > 500 |  | 97
11 | CC(C)Cc1cc2c(s1)C1(C[C@@H](C)N[C@@H](C)C1)OCC2 (single isomer, unassigned) [Compound 201] | > 500 |  | 95
12 | C[C@@H]1CC2(C[C@H](C)N1)OCCc1cc(C3CCCCC3)sc12 (single isomer, unassigned) [Compound 202] | > 500 |  | 94.7
13 | C[C@@H]1CC2(C[C@H](C)N1)OCCc1cc(CC(F)F)sc12 (single isomer, unassigned) [Compound 203] | < 50 |  | 99.3
14 | C[C@@H]1CC2(C[C@H](C)N1)OCCc1cc(Cl)sc12 (single isomer, unassigned) [Compound 204] | 50 to 500 |  | 99
15 | Clc1cc2c(s1)C1(C[C@@H](C3CC3)N[C@@H](C3CC3)C1)OCC2 (single isomer, unassigned) [Compound 206] | 50 to 500 |  | 99.3
16 | C[C@@H]1CC2(C[C@H](C)N1)OCCc1cc(C(F)(F)F)sc12 (single isomer, unassigned) [Compound 207] | 50 to 500 |  | 100
17 | C[C@@H]1CC2(C[C@H](C)N1)OCCc1c2sc(C(F)(F)F)c1CO (single isomer, unassigned) [Compound 208] | 50 to 500 |  | 99.5
18 | CC1CC2(CC(C3CC3(F)F)N1)OCCc1cc(Cl)sc12 (single isomer, unassigned) [Compound 212] | < 50 |  | 99
19 | COC(=O)[C@@H]1C[C@]2(C[C@@H](C)N1)OCCc1cc(Cl)sc12 (stereo in doubt) [Compound 209, methyl (2'S,6'R,7S)-2-chloro-6'-methyl-spiro[4,5-dihydrothieno[2,3-c]pyran-7,4'-piperidine]-2'-carboxylate] | > 500 |  | 76.7
20 | C[C@H]1C[C@@]2(C[C@@H](c3cn(C)nn3)N1)OCCc1cc(Cl)sc12 [Compound 1, (2'S, 6'S, 7S)-2-chloro-2'-methyl-6'-(1-methyltriazol-4-yl)spiro[4,5-dihydrothieno[2,3-c]pyran-7,4'-piperidine]] | < 50 |  | 99.3
21 | C[C@H]1C[C@@]2(C[C@@H](c3cn(C)nn3)N1)OCCc1cc(C(F)(F)F)sc12 [Compound 2, (2'S,6'S,7S)-2'-methyl-6'-(1-methyltriazol-4-yl)-2-(trifluoromethyl)spiro[4,5-dihydrothieno[2,3-c]pyran-7,4'-piperidine]] | < 50 |  | 100
22 | CCc1cc2c(s1)CCO[C@@]21C[C@@H](c2cnn(CCS(C)(=O)=O)c2)N[C@@H](C)C1 [Compound 5] | 50 to 500 | 100.0 | 
23 | C[C@H]1C[C@@]2(C[C@@H](c3cn(C)nn3)N1)OCCc1sc(C(F)(F)F)cc12 [Compound 8, (2'S,4S,6'S)-2'-methyl-6'-(1-methyltriazol-4-yl)-2-(trifluoromethyl)spiro[6,7-dihydrothieno[3,2-c]pyran-4,4'-piperidine]] | < 50 | 100.0 | 
24 | CC1CC2(CC(c3cnn(CCS(C)(=O)=O)c3)N1)OCCc1sc(C(F)(F)F)cc12 (stereo not drawn) [Compound 9] | 50 to 500 | 100.0 | 

Row | Structure (SMILES) | IC90 [nM] | Multi-Tox Assay Max Activity (%) | Emax [%]
25 | CC1COC2(C[C@@H](c3cn(C)nn3)N[C@@H](C)C2)c2cc(C(F)(F)F)sc21 (stereo partly drawn) [Compound 14] | 50 to 500 | 99.3 | 
26 | C[C@H]1C[C@@]2(C[C@@H](c3cn(C)nn3)N1)OCCc1c2sc(C(F)(F)F)c1CO [Compound 17, [(2'S,6'S,7S)-2'-methyl-6'-(1-methyltriazol-4-yl)-2-(trifluoromethyl)spiro[4,5-dihydrothieno[2,3-c]pyran-7,4'-piperidine]-3-yl]methanol] | < 50 |  | 100
27 | C[C@H]1C[C@@]2(C[C@@H](c3cnn(CC(=O)N(C)C)c3)N1)OCCc1cc(Cl)sc12 [Compound 18, 2-[4-[(2S, 6S)-2-chloro-6'-methyl-spiro[4,5-dihydrothieno[2,3-c]pyran-7,4'-piperidine]-2'-yl]pyrazol-1-yl]-N,N-dimethyl-acetamide] | < 50 |  | 99.5
28 | C[C@H]1C[C@@]2(C[C@@H](c3cnn(C)c3)N1)OCCc1cc(Cl)sc12 [Compound 19, (2S)-2-chloro-2'-methyl-6'-(1-methylpyrazol-4-yl)spiro[4,5-dihydrothieno[2,3-c]pyran-7,4'-piperidine]] | < 50 |  | 99.3
29 | CC1CC2(CC(c3cccc(C#N)c3)N1)OCCc1cc(Cl)sc12 (stereo not drawn) [Compound 24] | < 50 | 100.0 | 
30 | CNC(=O)c1cccc(C2CC3(CC(C)N2)OCCc2cc(Cl)sc23)c1 (stereo not drawn) [Compound 27] | < 50 | 100.3 | 
31 | CC1CC2(CC(c3ccncc3)N1)OCCc1cc(Cl)sc12 (stereo not drawn) [Compound 30] | < 50 |  | 
32 | CC1CC2(CC(c3cc(F)cc(C#N)c3)N1)OCCc1cc(Cl)sc12 (stereo not drawn) [Compound 33] | < 50 | 98.7 | 
33 | COc1ccc(C2CC3(CC(C)N2)OCCc2cc(Cl)sc23)nc1 (stereo not drawn) [Compound 34] | < 50 |  | 
34 | CC1CC2(CC(c3ccc4[nH]ncc4c3)N1)OCCc1cc(Cl)sc12 (stereo not drawn) [Compound 35] | < 50 | 99.3 | 
35 | CC(=O)Nc1ccc(C2CC3(CC(C)N2)OCCc2cc(Cl)sc23)cn1 (stereo not drawn) [Compound 37] | < 50 |  | 99.7
36 | CC1CC2(CC(c3cnn(C)n3)N1)OCCc1cc(Cl)sc12 (stereo not drawn) [Compound 38] | < 50 |  | 100
37 | CC1CC2(CC(c3ccc4c(c3)OCC(=O)N4)N1)OCCc1cc(Cl)sc12 (stereo not drawn) [Compound 39] | < 50 |  | 99.7
38 | CC1CC2(CC(c3cnn(-c4cccnc4)c3)N1)OCCc1cc(Cl)sc12 (stereo not drawn) [Compound 40] | < 50 | 100.0 | 
39 | CNC(=O)c1ccc(C2CC3(CC(C)N2)OCCc2cc(Cl)sc23)cc1 (stereo not drawn) [Compound 41] | < 50 | 99.7 | 
40 | Cc1nn(C)c2ncc(C3CC4(CC(C)N3)OCCc3cc(Cl)sc34)cc12 (stereo not drawn) [Compound 42] | < 50 | 99.7 | 
41 | Cc1cc(C2CC3(CC(C)N2)OCCc2cc(Cl)sc23)ncn1 (stereo not drawn) [Compound 43] | < 50 | 100.0 | 
42 | CC1CC2(CC(c3cncnc3)N1)OCCc1cc(Cl)sc12 (stereo not drawn) [Compound 45] | < 50 | 100.0 | 
43 | CC1CC2(CC(c3cnn(CCS(C)(=O)=O)c3)N1)OCCc1cc(Cl)sc12 (stereo not drawn) [Compound 46] | < 50 |  | 
44 | C[C@H]1C[C@@]2(C[C@@H](c3ccc(O)c(F)c3)N1)OCCc1cc(Cl)sc12 [Compound 51] | < 50 | 99.7 | 
45 | C[C@H]1C[C@@]2(C[C@@H](c3cnc(-c4cnn(C)c4)nc3)N1)OCCc1cc(Cl)sc12 [Compound 61] | < 50 |  | 99.7
46 | C[C@H]1C[C@@]2(C[C@@H](c3ccc(O)nn3)N1)OCCc1cc(Cl)sc12 [Compound 86] | < 50 |  | 99.5
47 | CCc1cc([C@@H]2C[C@]3(C[C@H](C)N2)OCCc2cc(Cl)sc23)on1 [Compound 91] | < 50 |  | 100
